Test results as given in patent publication US20220403001A1, “PDE5 DERIVED REGULATORY CONSTRUCTS AND METHODS OF USE IN IMMUNOTHERAPY” (Obsidian Therapeutics, Inc., priority 2018, published 2022).
Read-outs that look alike come from different tables or passages of the source. One block for each molecule: values may come before it.

Key:
[1] = Plasma PK of Tadalafil and Vardenafil after a single oral dose (LC/MS/MS); type: in vivo, mice; conditions: mouse, read-out: Plasma levels; for concentration at 1 h: 1 hour post dose; for concentration at 2 h: 2 hours post dose; for concentration at 4 h: 4 hours post dose; for concentration at 8 h: 8 hours post dose; for concentration at 12 h: 12 hours post dose; for concentration at 16 h: 16 hours post dose; for concentration at 24 h: 24 hours post dose
Method: Plasma samples collected over time and PDE5 inhibitor concentrations were determined by LC/MS/MS (Table 60). The Vardenafil/Tadalafil levels detected in the plasma declined over time and were commensurate with the initial dose orally administered to the animal.

[2] = approved dose, cited from earlier work
hPDE5 Y612F = hPDE5 Y612F (Homo sapiens, UniProt O76074, Y612F); conditions: Y612F ablates hydrogen bonding potential; Corbin et al. 2006; cited from earlier work
hPDE5 Y612A = hPDE5 Y612A (Homo sapiens, UniProt O76074, Y612A); conditions: Y612A ablates hydrogen bonding and hydrophobic bonding potential; Corbin et al. 2006; cited from earlier work
hPDE5 mutants [3] = assay: GFP expression (MFI) by FACS in HEK293 cells expressing hPDE5 constructs; conditions: read-out: EC50 of ligand dependent stabilization; HEK293 cells expressing OT-001076, OT-001083, OT-001084; 48 h
Method: The mutant library was ligated in frame with an AcGFP reporter at C-terminus and cloned into pLVX-IRES—Puro vectors. […] DNA was extracted from the cell pool, cloned into vectors, and transformed into E. coli. Individual clones were sequenced and cloned in frame with a linker [sequence] […] HEK293 cells were transduced with individual clones and selected with puromycin.
The GFP expression in cells expressing hPDE5 constructs was measured by FACS.
The stability of hPDE5 mutants was measured using FACS and mean fluorescence intensity (MFI) of GFP was calculated.

hPDE5 mutants [4] = target: T1, hPDE5 mutants (Homo sapiens, UniProt O76074); assay: GFP MFI by FACS in HCT116 cells transduced with hPDE5 constructs; type: cell-based; conditions: for Vardenafil Stabilization ratio / Sildenafil Stabilization ratio / GFP by FACS, Sildenafil 10 μM / GFP by FACS, Vardenafil 1 μM: hotspot constructs; for Vardenafil Stabilization ratio: 1 μM Vardenafil; for Sildenafil Stabilization ratio: 10 μM Sildenafil; for GFP by FACS, Sildenafil 10 μM / GFP by FACS, Vardenafil 1 μM: HCT116
hPDE5 mutants [5] = assay: as above; type: cell-based, human; conditions: for Sildenafil Destabilizing mutation coefficient / Vardenafil Destabilizing mutation coefficient / GFP by FACS, Sildenafil 0 μM (DMSO) / GFP by FACS, Vardenafil 0 μM (DMSO): hotspot constructs; for Sildenafil Destabilizing mutation coefficient: DMSO control of Sildenafil; for Sildenafil Destabilizing mutation coefficient / Vardenafil Destabilizing mutation coefficient: vs OT-001075; for Vardenafil Destabilizing mutation coefficient: DMSO control of Vardenafil; for GFP by FACS, Sildenafil 0 μM (DMSO): HCT116, DMSO control of Sildenafil; for GFP by FACS, Vardenafil 0 μM (DMSO): HCT116, DMSO control of Vardenafil; for MFI: 48 hours, HCT 116 cells
hPDE5 mutants [6] = target: T1, hPDE5 mutants; assay: Western blot of AcGFP/GFP protein levels in HCT 116 cells expressing hPDE5 mutants; type: cell-based; design: GFP protein levels (western blot); fused on or other part: AcGFP reporter through a linker; conditions: vardenafil vs DMSO, HCT 116, R732 mutants
Method: Protein expression analysis of the combination mutants was performed in parallel via western blot. […] GAPDH levels were also analyzed to ensure even protein loading.

[7] = NSG mice, single oral dose 10 mg/kg
[8] = NSG mice, single oral dose 30 mg/kg
[9] = NSG mice, single oral dose 100 mg/kg
[10] = CD-1 mice, single oral dose 10 mg/kg
[11] = CD-1 mice, single oral dose 100 mg/kg
[12] = Table 44, Vardenafil 0.01 μM, 48 h, HCT 116
[13] = Table 44, Vardenafil 0.04 μM, 48 h, HCT 116
[14] = Table 44, Vardenafil 3.33 μM, 48 h, HCT 116
[15] = Table 44, Vardenafil 10 μM, 48 h, HCT 116
[16] = Table 44, Vardenafil 30 μM, 48 h, HCT 116
[17] = Table 44, Vardenafil 1000 μM, 48 h, HCT 116
[18] = Table 45, Sildenafil 0.01 μM, 48 h, HCT 116
[19] = Table 45, Sildenafil 0.04 μM, 48 h, HCT 116
[20] = Table 45, Sildenafil 3.33 μM, 48 h, HCT 116
[21] = Table 45, Sildenafil 10 μM, 48 h, HCT 116
[22] = Table 45, Sildenafil 30 μM, 48 h, HCT 116
[23] = Table 45, Sildenafil 1000 μM, 48 h, HCT 116
[24] = Tadalafil 0.01 μM, 48 hours, HCT 116 cells

Molecule: CCCc1nn(C)c2c(=O)[nH]c(-c3cc(S(=O)(=O)N4CCN(C)CC4)ccc3OCC)nc12 [Sildenafil]
- effect of Y612F mutation on inhibition of hPDE5 activity by ligand (hPDE5 Y612F): increases the inhibition of hPDE5 activity
- effect of Y612A mutation on inhibition of hPDE5 catalytic activity by ligand (hPDE5 Y612A): to a lesser extent

Molecule: CCCc1nc(C)c2c(=O)[nH]c(-c3cc(S(=O)(=O)N4CCN(CC)CC4)ccc3OCC)nn12 [Vardenafil]
- concentration at 1 h [1, 10]: 160 nM
- concentration at 2 h [1, 10]: 30 nM
- concentration at 4 h [1, 10]: 20 nM
- concentration at 1 h [1, 11]: 7810 nM
- concentration at 2 h [1, 11]: 3040 nM
- concentration at 4 h [1, 11]: 3320 nM
- concentration at 8 h [1, 11]: 1180 nM
- concentration at 12 h [1, 11]: 40 nM
- Cmax ([2]; PO): 100 nM
- EC50 (hPDE5 mutants [3]): 0.1 to 0.3 µM

Molecule: OT-001203: hPDE5 R732C AcGFP construct
- Vardenafil Stabilization ratio (hPDE5 mutants [4]): 0.66
- Sildenafil Stabilization ratio (hPDE5 mutants [4]): 1.42
- GFP by FACS, Sildenafil 10 μM (hPDE5 mutants [4]): 707
- GFP by FACS, Vardenafil 1 μM (hPDE5 mutants [4]): 349
- Sildenafil Destabilizing mutation coefficient (hPDE5 mutants [5]): 0.5
- Vardenafil Destabilizing mutation coefficient (hPDE5 mutants [5]): 3.27
- GFP by FACS, Sildenafil 0 μM (DMSO) (hPDE5 mutants [5]): 499
- GFP by FACS, Vardenafil 0 μM (DMSO) (hPDE5 mutants [5]): 526
- GFP protein levels (western blot) (hPDE5 mutants [6]): strong stabilization of GFP levels

Molecule: OT-001192: hPDE5 R732W AcGFP construct
- Vardenafil Stabilization ratio (hPDE5 mutants [4]): 0.59
- Sildenafil Stabilization ratio (hPDE5 mutants [4]): 0.64
- GFP by FACS, Sildenafil 10 μM (hPDE5 mutants [4]): 158
- GFP by FACS, Vardenafil 1 μM (hPDE5 mutants [4]): 179
- Sildenafil Destabilizing mutation coefficient (hPDE5 mutants [5]): 0.25
- Vardenafil Destabilizing mutation coefficient (hPDE5 mutants [5]): 1.87
- GFP by FACS, Sildenafil 0 μM (DMSO) (hPDE5 mutants [5]): 248
- GFP by FACS, Vardenafil 0 μM (DMSO) (hPDE5 mutants [5]): 301
- GFP protein levels (western blot) (hPDE5 mutants [6]): strong stabilization of GFP levels

Molecule: OT-001190: hPDE5 R732P AcGFP construct
- Vardenafil Stabilization ratio (hPDE5 mutants [4]): 0.87
- Sildenafil Stabilization ratio (hPDE5 mutants [4]): 0.95
- GFP by FACS, Sildenafil 10 μM (hPDE5 mutants [4]): 361
- GFP by FACS, Vardenafil 1 μM (hPDE5 mutants [4]): 310
- Sildenafil Destabilizing mutation coefficient (hPDE5 mutants [5]): 0.38
- Vardenafil Destabilizing mutation coefficient (hPDE5 mutants [5]): 2.2
- GFP by FACS, Sildenafil 0 μM (DMSO) (hPDE5 mutants [5]): 379
- GFP by FACS, Vardenafil 0 μM (DMSO) (hPDE5 mutants [5]): 355
- GFP protein levels (western blot) (hPDE5 mutants [6]): strong stabilization of GFP levels

Molecule: OT-001191: hPDE5 R732F AcGFP construct
- MFI (hPDE5 mutants [4]; [12]): 2188
- MFI (hPDE5 mutants [4]; [13]): 8468
- MFI (hPDE5 mutants [4]; [14]): 14705
- MFI (hPDE5 mutants [4]; [15]): 17021
- MFI (hPDE5 mutants [4]; [16]): 20693
- MFI (hPDE5 mutants [4]; [17]): 20693
- MFI (hPDE5 mutants [4]; [18]): 688
- MFI (hPDE5 mutants [4]; [19]): 916
- MFI (hPDE5 mutants [4]; [20]): 3555
- MFI (hPDE5 mutants [4]; [21]): 4427
- MFI (hPDE5 mutants [4]; [22]): 5449
- MFI (hPDE5 mutants [4]; [23]): 5449
- MFI (hPDE5 mutants [4]; [24]): 631
- Vardenafil Stabilization ratio (hPDE5 mutants [4]): 4.99
- Sildenafil Stabilization ratio (hPDE5 mutants [4]): 1.51
- GFP by FACS, Sildenafil 10 μM (hPDE5 mutants [4]): 351
- GFP by FACS, Vardenafil 1 μM (hPDE5 mutants [4]): 943
- MFI (hPDE5 mutants [5]; Tadalafil 11.11 μM): 4734
- MFI (hPDE5 mutants [5]; Tadalafil 33.33 μM): 5293
- MFI (hPDE5 mutants [5]; Tadalafil 100 μM): 5867
- MFI (hPDE5 mutants [5]; Tadalafil 1000 μM): 5867
- Sildenafil Destabilizing mutation coefficient (hPDE5 mutants [5]): 0.24
- Vardenafil Destabilizing mutation coefficient (hPDE5 mutants [5]): 1.17
- GFP by FACS, Sildenafil 0 μM (DMSO) (hPDE5 mutants [5]): 233
- GFP by FACS, Vardenafil 0 μM (DMSO) (hPDE5 mutants [5]): 189
- GFP protein levels (western blot) (hPDE5 mutants [6]): Modest ligand dependent stabilization of GFP levels

Further lines, with some results ahead:

- concentration at 1 h [1, 7]: 6800 nM
- concentration at 2 h [1, 7]: 5400 nM
- concentration at 4 h [1, 7]: 3900 nM
- concentration at 8 h [1, 7]: 900 nM
- concentration at 12 h [1, 7]: 100 nM
- concentration at 16 h [1, 7]: 0 nM
- concentration at 1 h [1, 8]: 19800 nM
- concentration at 2 h [1, 8]: 17600 nM
- concentration at 4 h [1, 8]: 12100 nM
- concentration at 8 h [1, 8]: 4400 nM
- concentration at 12 h [1, 8]: 500 nM
- concentration at 16 h [1, 8]: 100 nM
- concentration at 24 h [1, 8]: 0 nM
- concentration at 1 h [1, 9]: 53300 nM
- concentration at 2 h [1, 9]: 44700 nM
- concentration at 4 h [1, 9]: 34800 nM
- concentration at 8 h [1, 9]: 13700 nM
- concentration at 12 h [1, 9]: 5600 nM
- concentration at 16 h [1, 9]: 1500 nM
- concentration at 24 h [1, 9]: 100 nM
Molecule: CN1CC(=O)N2[C@H](c3ccc4c(c3)OCO4)c3[nH]c4ccccc4c3C[C@@H]2C1=O [Tadalafil]
- Cmax ([2]; PO): 1500 nM
- Duration of action [2]: 24 to 36 h

- Vardenafil Stabilization ratio (hPDE5 mutants [4]): 1.07
- Sildenafil Stabilization ratio (hPDE5 mutants [4]): 1.76
- GFP by FACS, Sildenafil 10 μM (hPDE5 mutants [4]): 503
- GFP by FACS, Vardenafil 1 μM (hPDE5 mutants [4]): 337
- GFP protein levels (western blot) (hPDE5 mutants [6]): strong stabilization of GFP levels
Molecule: OT-001202: hPDE5 R732M AcGFP construct
- Sildenafil Destabilizing mutation coefficient (hPDE5 mutants [5]): 0.29
- Vardenafil Destabilizing mutation coefficient (hPDE5 mutants [5]): 1.96
- GFP by FACS, Sildenafil 0 μM (DMSO) (hPDE5 mutants [5]): 285
- GFP by FACS, Vardenafil 0 μM (DMSO) (hPDE5 mutants [5]): 316

- MFI (hPDE5 mutants [4]; [12]): 4336
- MFI (hPDE5 mutants [4]; [13]): 7350
- MFI (hPDE5 mutants [4]; [14]): 44499
- MFI (hPDE5 mutants [4]; [15]): 50822
- MFI (hPDE5 mutants [4]; [16]): 70645
- MFI (hPDE5 mutants [4]; [17]): 70645
- MFI (hPDE5 mutants [4]; [18]): 1192
- MFI (hPDE5 mutants [4]; [19]): 1270
- MFI (hPDE5 mutants [4]; [20]): 6171
- MFI (hPDE5 mutants [4]; [21]): 13971
- MFI (hPDE5 mutants [4]; [22]): 21120
- MFI (hPDE5 mutants [4]; [23]): 21120
- MFI (hPDE5 mutants [4]; [24]): 1163
- Vardenafil Stabilization ratio (hPDE5 mutants [4]): 1.44
- Sildenafil Stabilization ratio (hPDE5 mutants [4]): 1.32
- GFP by FACS, Sildenafil 10 μM (hPDE5 mutants [4]): 394
- GFP by FACS, Vardenafil 1 μM (hPDE5 mutants [4]): 422
- GFP protein levels (western blot) (hPDE5 mutants [6]): strong stabilization of GFP levels
Molecule: OT-001198: hPDE5 R732D AcGFP construct
- MFI (hPDE5 mutants [5]; Tadalafil 11.11 μM): 10583
- MFI (hPDE5 mutants [5]; Tadalafil 33.33 μM): 16956
- MFI (hPDE5 mutants [5]; Tadalafil 100 μM): 22630
- MFI (hPDE5 mutants [5]; Tadalafil 1000 μM): 22630
- Sildenafil Destabilizing mutation coefficient (hPDE5 mutants [5]): 0.3
- Vardenafil Destabilizing mutation coefficient (hPDE5 mutants [5]): 1.83
- GFP by FACS, Sildenafil 0 μM (DMSO) (hPDE5 mutants [5]): 298
- GFP by FACS, Vardenafil 0 μM (DMSO) (hPDE5 mutants [5]): 294
